The subject of data set [1] is E. coli cells expressing the artificial biosynthetic pathway (pJBEI6410+pJHA170). The data set can be described thus: Cell viability test with CFU (colony forming units) assay. It is filed as cell-based. The conditions noted are these: high concentration, 4 h exposure. Here is the method: 9. Cell viability test with CFU (colony forming units) assay. E. coli cells co-transformed with pJBEI6410 and pJHA170 were grown as described in 7, except for the following steps. […] A portion of cell culture (1.4 mL) was transferred into Falcon 14 mL round-bottom tube. […] For the control group, only sterile ddH2O (1%, v/v) was added. The cultures were further incubated at 30° C., 200 rpm for 4 h. Then the cultures were diluted 10^5 times. Aliquots of diluted cell suspension (50 μL) were plated onto LB agar plates. The plates were incubated at 30° C. for 24 h. The colonies grown on the plates were manually counted and the percentage of viable cells in each group was calculated by normalizing the number of colonies grown in the control group as 100%.

Data set [2] addresses T1, Sulfolobus CYP119 (cytochrome P450 119, parent sequence SEQ ID NO: 1), apo form, CYP119-141 mutant (C317G, T213G, V254L, L155W) (Sulfolobus acidocaldarius, UniProt Q55080, C317G/L155W/T213G/V254L).
T1 construct: made in house
Nature of the data set: Binding affinity of apo-CYP119 towards Ir(Me)MPIX/hemin (intrinsic fluorescence quenching, Benesi-Hildebrand). The arrangement: species or system Sulfolobus solfataricus. The conditions noted are these: excitation 294 nm, 10 mM TRIS buffer pH 8.0, Benesi-Hildebrand analysis.
Procedure: Intrinsic fluorescence quenching;^8 Modified from a reported procedure, aliquots (10 μL) of metalloporphyrin stock solutions (in DMSO) were added to a solution containing 0.15 mg/L apo-CYP119 (CYP119-141 mutant, 800 μL, 10 mM TRIS buffer, pH 8.0). This addition caused the concentration of the protein to decrease from its initial value to a final concentration of 0.148 mg/L in the process. After each addition, the emission spectrum of CYP119 was recorded upon excitation at 294 nm. In quenching experiments, the concentration of the chromophore (CYP119 or porphyrin) was kept sufficiently low (<0.15) to ensure uniform light absorption throughout the sample and reduced inner filter effects. The fluorescence emission intensity was calculated as the integral of the emission spectrum in the recorded wavelength range (305-450 nm).

The test system of a further data set is BL21(DE3) cells. Nature of the data set: Cytotoxicity of Ir(Me)MPIX and cyclopropyl limonene, cell growth by OD600. The conditions noted are these: for effect on cell growth: 0-10 μM. Here is the method:
10. […] Individual colonies from freshly transformed plates (incubated at 30° C.) were inoculated into 2 mL M9-rich media supplemented with appropriate antibiotics. A 1:100 dilution of overnight cultures into 300 μL M9-rich media was performed in a 48-well plate. […] The OD600 values were recorded by a plate reader (F200 or F200pro, Tecan) set at 30° C.
Cyclopropyl limonene; BL21(DE3) cells co-transformed with pHug21 (coding for HUG system) and pJHA110 (coding for CYP119 mutant) were grown and cultivated as described above. The stock solution of cyclopropyl limonene in ethanol was added to the cell culture to give final concentration of 0, 0.2, 1, 5, 25 mg/L cyclopropyl limonene and 1% (v/v) ethanol. The OD600 values were recorded by a plate reader (F200 or F200pro, Tecan) set at 30° C.

In data set [3] the test system is E. coli cells expressing limonene biosynthetic pathway. Nature of the data set: Effect of Ir(Me)MPIX addition on limonene titer. It is filed as cell-based. The conditions noted are these: 0.1 μM Ir(Me)MPIX in DMSO. Here is the method:
6. Limonene biosynthesis. Chemically competent BL21(DE3) (NEB) cells were transformed with a plasmid coding for MEV pathway enzymes to produce limonene from glucose in E. coli (pJBEI6410 or pJBEI6409). […] The cultures were grown overnight at 30° C. and 200 rpm for 18 h. In a 50 mL glass culture tube, 10 mL of M9-rich media was inoculated with 100 μL of overnight starter culture and incubated at 37° C. and 200 rpm to an OD600 of ˜1. Unless otherwise indicated, the cultures were then induced by adding 50 μM IPTG (final concentration), and 10% (v/v) dodecane was added to trap the limonene produced. Upon induction, the temperature was reduced to 30° C. and expressions were allowed to continue for 24 h at 200 rpm. An aliquot of the 100 μL dodecane overlay was diluted with 900 μL ethyl acetate containing 40 mg/L beta-pinene (beta-pinene as internal standard) and analyzed by GC-MS.

The subject of the next data set is E. coli BL21(DE3) cells. The data set can be described thus: Evaluation of the effect of Ir(Me)MPIX and cyclopropyl limonene on cell growth (OD600). The note with it: 0, 0.1, 1, 10 μM Ir(Me)MPIX, M9-rich media, 30° C. The class given is cell-based, Escherichia coli.
Data set [4] concerns the target apo-myoglobin. The note with it: literature; cited from earlier work.
Data set [5] has as its target apo-ascorbate peroxidase. The note with it: literature; cited from earlier work.
Data set [6] deals with apo-myoglobin. The conditions noted are these: from literature (ref. 9); cited from earlier work.
For data set [7], the target named is apo-ascorbate peroxidase. The conditions noted are these: from literature (ref. 9); cited from earlier work.

Entries after “also recorded” stand apart in the source; their conditions may differ. Like-named read-outs stand apart in the source and are kept apart here.

Results on four compounds are retold here after patent publication US12129493B2, “Host cells and methods useful for producing unnatural terpenoids using a novel artificial metalloenzyme” (The Regents of the University of California, priority 2020, dated 2024).

T1 sequence (Q55080 whole entry L155W/T213G/V254L/C317G): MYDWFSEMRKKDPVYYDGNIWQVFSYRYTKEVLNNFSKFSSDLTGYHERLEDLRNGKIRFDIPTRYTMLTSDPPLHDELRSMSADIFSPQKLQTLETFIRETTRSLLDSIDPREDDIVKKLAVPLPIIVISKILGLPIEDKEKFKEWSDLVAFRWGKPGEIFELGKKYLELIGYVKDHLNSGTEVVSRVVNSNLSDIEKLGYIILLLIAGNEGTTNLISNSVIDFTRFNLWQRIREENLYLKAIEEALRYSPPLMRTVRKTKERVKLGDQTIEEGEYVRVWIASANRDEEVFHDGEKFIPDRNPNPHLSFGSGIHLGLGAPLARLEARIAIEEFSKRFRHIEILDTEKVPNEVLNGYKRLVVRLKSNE

Turning to `CCOC(=O)C=[N+]=[N-]` [EDA, ethyl diazoacetate], in data set [1], the “toxicity to E. coli cells (viable cells)” value is given as “toxic”.
Broadly, the Kd is the equilibrium constant for the complex coming apart. Regarding `CCC1=C(C)c2cc3[n-]c(cc4[n-]c(cc5nc(cc1n2)C(C)=C5CC)c(C)c4CCC(=O)O)c(CCC(=O)O)c3C.[CH3-].[Ir+3]` [Ir(Me)MPIX], the Kb in data set [2] is 4.2(0.3) × 10^5 M^−1. For the same compound, the Kd in [2] (read-out: Kd) worked out at 2400 nM. Moreover, the “effect on cell growth” value in the data set on BL21(DE3) cells (BL21(DE3) expressing the HUG system) and in the data set with BL21(DE3) cells (BL21(DE3) with empty vector pBbS5K) was “little effect” in each case. In the data set with BL21(DE3) cells (concentration range relevant for the study), the “inhibition of cell growth” value was “did not inhibit cell growth”. The “effect on limonene titer” value in data set [3] is recorded as “unaffected; also recorded: little impact”. In the data set with E. coli BL21(DE3) cells, the “effect on growth of BL21(DE3) cells expressing the HUG system” value is listed as “little effect on the growth”. In addition, the “effect on growth of BL21(DE3) cells transformed with an empty vector pBbS5K” value in the data set with E. coli BL21(DE3) cells is “little effect on the growth”.
Regarding `C=CC1=C(C)c2cc3[n-]c(cc4[n-]c(cc5nc(cc1n2)C(C)=C5C=C)c(C)c4CCC(=O)O)c(CCC(=O)O)c3C.[Cl-].[Fe+3]` [Fe(Cl)PPIX], the Kd at apo-myoglobin [4] was 600 nM; at apo-ascorbate peroxidase [5], 190 nM.
As for `C=CC1=C(C)c2cc3[nH]c(cc4nc(cc5[nH]c(cc1n2)c(C)c5CCC(=O)O)C(CCC(=O)O)=C4C)c(C)c3C=C.[Fe+3]` [Fe(Cl)PPIX, reference compound], the Kb in data set [2] was 6.7(0.7) × 10^5 M^−1. The Kd in [2] was 1500 nM; at apo-myoglobin [6], 600 nM; on apo-ascorbate peroxidase [7] it was 190 nM.
